Converted amounts (≈) assume the structure as drawn.
Columns and labels:
Candida albicans [1] = test: In vitro antifungal activity against Candida albicans (CA 10231); assay type: functional
Pichia kudriavzevii = test: In vitro antifungal activity against Candida krusei (CK 28838); assay type: functional
Candida albicans [2] = test: Compound was screened in vitro for antifungal activity against Candida albicans (CA 38247); assay type: functional
Candida albicans [3] = test: Compound was screened in vitro for antifungal activity against Candida albicans (CA 442); assay type: functional
Candida albicans [4] = test: In vitro for antifungal activity against Candida albicans (CA 579a); assay type: functional
Candida tropicalis = test: In vitro antifungal activity against Candida tropicalis (CT 750); assay type: functional
Aspergillus niger = test: In vitro antifungal activity at a minimum inhibitory concentration (~100 ug/mL) against Aspergillus niger; Not affected; assay type: functional
Candida albicans [5] = test: In vitro antifungal activity against Candida albicans (CA 38247); Weak; assay type: functional, organism-based
Candida albicans [6] = test: In vitro antifungal activity against Candida albicans (CA 442); Weak; assay type: functional, organism-based
Candida albicans [7] = test: In vitro antifungal activity against Candida albicans (CA 62376); Weak; assay type: functional, organism-based
Candida albicans [8] = test: In vitro antifungal activity against […] (CA 34140); Not affected.; assay type: functional
Homo sapiens = species: Homo sapiens; test: Inhibitory activity against human concanavalin-A proliferation assay; assay type: functional
Nakaseomyces glabratus = test: In vitro antifungal activity against Torulopsis glabrata (TG 15545); assay type: functional
[9] = Aspergillus niger, read-out: MIC

SMILES: CO[C@H]1C[C@@H]2CC[C@@H](C)[C@@](O)(O2)C(=O)C(=O)N2CCCC[C@H]2C(=O)O[C@H]([C@H](C)C[C@@H]2CC[C@@H](OC(=O)N3CCNCC3)[C@H](OC)C2)CC(=O)[C@H](C)/C=C(\C)[C@@H](O)[C@@H](OC)C(=O)[C@H](C)C[C@H](C)CCCC/C=C/1C
- MIC (Candida albicans [1]): > 100 µg/mL
- MIC (Pichia kudriavzevii): > 100 µg/mL
- MIC (Candida albicans [2]): > 100 µg/mL
- MIC (Candida albicans [3]): > 100 µg/mL
- MIC (Candida albicans [4]): > 100 µg/mL
- MIC (Candida tropicalis): > 100 µg/mL

SMILES: CO[C@@H]1C[C@H](C[C@@H](C)[C@@H]2CC(=O)[C@H](C)/C=C(\C)[C@@H](O)[C@@H](OC)C(=O)[C@H](C)C[C@H](C)/C=C/C=C/C=C(\C)[C@H](N(O)C(=O)Oc3ccccc3)C[C@@H]3CC[C@@H](C)[C@@](O)(O3)C(=O)C(=O)N3CCCC[C@H]3C(=O)O2)CC[C@H]1O
- MIC (Aspergillus niger; [9]): ~100 µg/mL (≈ 96.6 µM)
- MIC (Candida albicans [1]): 1.56 µg/mL (≈ 1.51 µM)
- MIC (Pichia kudriavzevii): 0.78 µg/mL (≈ 0.753 µM)
- MIC (Candida albicans [5]): Weak
- MIC (Candida albicans [6]): Weak
- MIC (Candida albicans [4]): 3.12 µg/mL (≈ 3.01 µM)
- MIC (Candida albicans [7]): Weak
- MIC (Candida albicans [8]): ~100 µg/mL (≈ 96.6 µM)
- MIC (Candida tropicalis): 0.78 µg/mL (≈ 0.753 µM)
- IC50 (Homo sapiens): 170 nM
- MIC (Nakaseomyces glabratus): 0.78 µg/mL (≈ 0.753 µM)

SMILES: CCCCOC(=O)N(O)[C@H]1C[C@@H]2CC[C@@H](C)[C@@](O)(O2)C(=O)C(=O)N2CCCC[C@H]2C(=O)O[C@H]([C@H](C)C[C@@H]2CC[C@@H](O)[C@H](OC)C2)CC(=O)[C@H](C)/C=C(\C)[C@@H](O)[C@@H](OC)C(=O)[C@H](C)C[C@H](C)/C=C/C=C/C=C/1C
- MIC (Aspergillus niger; [9]): ~100 µg/mL (≈ 98.5 µM)
- MIC (Candida albicans [1]): 12.5 µg/mL (≈ 12.3 µM)
- MIC (Pichia kudriavzevii): 1.56 µg/mL (≈ 1.54 µM)
- MIC (Candida albicans [5]): Weak
- MIC (Candida albicans [6]): Weak
- MIC (Candida albicans [4]): 12.5 µg/mL (≈ 12.3 µM)
- MIC (Candida albicans [7]): Weak
- MIC (Candida albicans [8]): ~100 µg/mL (≈ 98.5 µM)
- MIC (Candida tropicalis): 12.5 µg/mL (≈ 12.3 µM)
- IC50 (Homo sapiens): 523 nM
- MIC (Nakaseomyces glabratus): 1.56 µg/mL (≈ 1.54 µM)

SMILES: CO[C@@H]1C[C@H](C[C@@H](C)[C@@H]2CC(=O)[C@H](C)/C=C(\C)[C@@H](O)[C@@H](OC)C(=O)[C@H](C)C[C@H](C)/C=C/C=C/C=C(\C)[C@H](N(O)C(N)=O)C[C@@H]3CC[C@@H](C)[C@@](O)(O3)C(=O)C(=O)N3CCCC[C@H]3C(=O)O2)CC[C@H]1O
- MIC (Aspergillus niger): ~100 µg/mL (≈ 104 µM)
- MIC (Aspergillus niger; [9]): ~100 µg/mL (≈ 104 µM)
- MIC (Candida albicans [1]): 12.5 µg/mL (≈ 13 µM)
- MIC (Pichia kudriavzevii): 3.12 µg/mL (≈ 3.26 µM)
- MIC (Candida albicans [5]): Weak
- MIC (Candida albicans [6]): Weak
- MIC (Candida albicans [4]): 25 µg/mL (≈ 26.1 µM)
- MIC (Candida albicans [7]): Weak
- MIC (Candida albicans [8]): ~100 µg/mL (≈ 104 µM)
- MIC (Candida tropicalis): 3.12 µg/mL (≈ 3.26 µM)
- IC50 (Homo sapiens): 379 nM
- MIC (Nakaseomyces glabratus): 1.56 µg/mL (≈ 1.63 µM)

SMILES: CO[C@H]1C[C@@H]2CC[C@@H](C)[C@@](O)(O2)C(=O)C(=O)N2CCCC[C@H]2C(=O)O[C@H]([C@H](C)C[C@@H]2CC[C@@H](OC(=O)N3CCCCC3)[C@H](OC)C2)CC(=O)[C@H](C)/C=C(\C)[C@@H](O)[C@@H](OC)C(=O)[C@H](C)C[C@H](C)CCCC/C=C/1C
- MIC (Candida albicans [1]): > 100 µg/mL
- MIC (Pichia kudriavzevii): > 100 µg/mL
- MIC (Candida albicans [2]): > 100 µg/mL
- MIC (Candida albicans [3]): > 100 µg/mL
- MIC (Candida albicans [4]): > 100 µg/mL
- MIC (Candida tropicalis): > 100 µg/mL

SMILES: CO[C@@H]1C[C@H](C[C@@H](C)[C@@H]2CC(=O)[C@H](C)/C=C(\C)[C@@H](O)[C@@H](OC)C(=O)[C@H](C)C[C@H](C)/C=C/C=C/C=C(\C)[C@@H](N(O)C(N)=O)C[C@@H]3CC[C@@H](C)[C@@](O)(O3)C(=O)C(=O)N3CCCC[C@H]3C(=O)O2)CC[C@H]1O
- MIC (Aspergillus niger; [9]): ~100 µg/mL (≈ 104 µM)
- MIC (Candida albicans [1]): 100 µg/mL (≈ 104 µM)
- MIC (Pichia kudriavzevii): 3.12 µg/mL (≈ 3.26 µM)
- MIC (Candida albicans [5]): Weak
- MIC (Candida albicans [6]): Weak
- MIC (Candida albicans [4]): 100 µg/mL (≈ 104 µM)
- MIC (Candida albicans [7]): Weak
- MIC (Candida albicans [8]): ~100 µg/mL (≈ 104 µM)
- MIC (Candida tropicalis): 12.5 µg/mL (≈ 13 µM)
- IC50 (Homo sapiens): 758 nM
- MIC (Nakaseomyces glabratus): 1.56 µg/mL (≈ 1.63 µM)

SMILES: CO[C@@H]1C[C@H](C[C@@H](C)[C@@H]2CC(=O)[C@H](C)/C=C(\C)[C@@H](O)[C@@H](OC)C(=O)[C@H](C)C[C@H](C)/C=C/C=C/C=C(\C)[C@H](N(O)C(=O)OC(C)C)C[C@@H]3CC[C@@H](C)[C@@](O)(O3)C(=O)C(=O)N3CCCC[C@H]3C(=O)O2)CC[C@H]1O
- MIC (Aspergillus niger; [9]): ~100 µg/mL (≈ 99.9 µM)
- MIC (Candida albicans [1]): 6.25 µg/mL (≈ 6.24 µM)
- MIC (Pichia kudriavzevii): 0.78 µg/mL (≈ 0.779 µM)
- MIC (Candida albicans [5]): Weak
- MIC (Candida albicans [6]): Weak
- MIC (Candida albicans [4]): 12.5 µg/mL (≈ 12.5 µM)
- MIC (Candida albicans [7]): Weak
- MIC (Candida albicans [8]): ~100 µg/mL (≈ 99.9 µM)
- MIC (Candida tropicalis): 25 µg/mL (≈ 25 µM)
- IC50 (Homo sapiens): 220 nM
- MIC (Nakaseomyces glabratus): 0.78 µg/mL (≈ 0.779 µM)

SMILES: CCCCOC(=O)N(O)[C@@H]1C[C@@H]2CC[C@@H](C)[C@@](O)(O2)C(=O)C(=O)N2CCCC[C@H]2C(=O)O[C@H]([C@H](C)C[C@@H]2CC[C@@H](O)[C@H](OC)C2)CC(=O)[C@H](C)/C=C(\C)[C@@H](O)[C@@H](OC)C(=O)[C@H](C)C[C@H](C)/C=C/C=C/C=C/1C
- MIC (Aspergillus niger; [9]): ~100 µg/mL (≈ 98.5 µM)
- MIC (Candida albicans [1]): 1.56 µg/mL (≈ 1.54 µM)
- MIC (Pichia kudriavzevii): 0.78 µg/mL (≈ 0.768 µM)
- MIC (Candida albicans [5]): Weak
- MIC (Candida albicans [6]): Weak
- MIC (Candida albicans [4]): 1.56 µg/mL (≈ 1.54 µM)
- MIC (Candida albicans [7]): Weak
- MIC (Candida albicans [8]): ~100 µg/mL (≈ 98.5 µM)
- MIC (Candida tropicalis): 1.56 µg/mL (≈ 1.54 µM)
- IC50 (Homo sapiens): 83 nM
- MIC (Nakaseomyces glabratus): 0.78 µg/mL (≈ 0.768 µM)

SMILES: CO[C@@H]1C[C@H](C[C@@H](C)[C@@H]2CC(=O)[C@H](C)/C=C(\C)[C@@H](O)[C@@H](OC)C(=O)[C@H](C)C[C@H](C)/C=C/C=C/C=C(\C)[C@@H](N(O)C(=O)OC(C)C)C[C@@H]3CC[C@@H](C)[C@@](O)(O3)C(=O)C(=O)N3CCCC[C@H]3C(=O)O2)CC[C@H]1O
- MIC (Aspergillus niger; [9]): ~100 µg/mL (≈ 99.9 µM)
- MIC (Candida albicans [1]): 6.25 µg/mL (≈ 6.24 µM)
- MIC (Pichia kudriavzevii): 0.78 µg/mL (≈ 0.779 µM)
- MIC (Candida albicans [5]): Weak
- MIC (Candida albicans [6]): Weak
- MIC (Candida albicans [4]): 12.5 µg/mL (≈ 12.5 µM)
- MIC (Candida albicans [7]): Weak
- MIC (Candida albicans [8]): ~100 µg/mL (≈ 99.9 µM)
- MIC (Candida tropicalis): 25 µg/mL (≈ 25 µM)
- IC50 (Homo sapiens): 820 nM
- MIC (Nakaseomyces glabratus): 0.78 µg/mL (≈ 0.779 µM)

SMILES: CO[C@@H]1C[C@H](C[C@@H](C)[C@@H]2CC(=O)[C@H](C)/C=C(\C)[C@@H](O)[C@@H](OC)C(=O)[C@H](C)C[C@H](C)/C=C/C=C/C=C(\C)[C@H](N(O)C(=O)OCC(C)C)C[C@@H]3CC[C@@H](C)[C@@](O)(O3)C(=O)C(=O)N3CCCC[C@H]3C(=O)O2)CC[C@H]1O
- MIC (Aspergillus niger; [9]): ~100 µg/mL (≈ 98.5 µM)
- MIC (Candida albicans [1]): 1.56 µg/mL (≈ 1.54 µM)
- MIC (Pichia kudriavzevii): 0.78 µg/mL (≈ 0.768 µM)
- MIC (Candida albicans [5]): Weak
- MIC (Candida albicans [6]): Weak
- MIC (Candida albicans [4]): 3.12 µg/mL (≈ 3.07 µM)
- MIC (Candida albicans [7]): Weak
- MIC (Candida albicans [8]): ~100 µg/mL (≈ 98.5 µM)
- MIC (Candida tropicalis): 1.56 µg/mL (≈ 1.54 µM)
- IC50 (Homo sapiens): 196 nM
- MIC (Nakaseomyces glabratus): 0.78 µg/mL (≈ 0.768 µM)

SMILES: CO[C@@H]1C[C@H](C[C@@H](C)[C@@H]2CC(=O)[C@H](C)/C=C(\C)[C@@H](O)[C@@H](OC)C(=O)[C@H](C)C[C@H](C)/C=C/C=C/C=C(\C)[C@H](N(O)C(=O)N3CCCCC3)C[C@@H]3CC[C@@H](C)[C@@](O)(O3)C(=O)C(=O)N3CCCC[C@H]3C(=O)O2)CC[C@H]1O
- MIC (Aspergillus niger; [9]): ~100 µg/mL (≈ 97.4 µM)
- MIC (Candida albicans [1]): 1.56 µg/mL (≈ 1.52 µM)
- MIC (Pichia kudriavzevii): 1.56 µg/mL (≈ 1.52 µM)
- MIC (Candida albicans [5]): Weak
- MIC (Candida albicans [6]): Weak
- MIC (Candida albicans [4]): 1.56 µg/mL (≈ 1.52 µM)
- MIC (Candida albicans [7]): Weak
- MIC (Candida albicans [8]): ~100 µg/mL (≈ 97.4 µM)
- MIC (Candida tropicalis): 6.25 µg/mL (≈ 6.09 µM)
- IC50 (Homo sapiens): 786 nM
- MIC (Nakaseomyces glabratus): 1.56 µg/mL (≈ 1.52 µM)

SMILES: CCCOC(=O)N(O)[C@@H]1C[C@@H]2CC[C@@H](C)[C@@](O)(O2)C(=O)C(=O)N2CCCC[C@H]2C(=O)O[C@H]([C@H](C)C[C@@H]2CC[C@@H](O)[C@H](OC)C2)CC(=O)[C@H](C)/C=C(\C)[C@@H](O)[C@@H](OC)C(=O)[C@H](C)C[C@H](C)/C=C/C=C/C=C/1C
- MIC (Aspergillus niger; [9]): ~100 µg/mL (≈ 99.9 µM)
- MIC (Candida albicans [1]): 1.56 µg/mL (≈ 1.56 µM)
- MIC (Pichia kudriavzevii): 0.78 µg/mL (≈ 0.779 µM)
- MIC (Candida albicans [5]): Weak
- MIC (Candida albicans [6]): Weak
- MIC (Candida albicans [4]): 3.12 µg/mL (≈ 3.12 µM)
- MIC (Candida albicans [7]): Weak
- MIC (Candida albicans [8]): ~100 µg/mL (≈ 99.9 µM)
- MIC (Candida tropicalis): 1.56 µg/mL (≈ 1.56 µM)
- IC50 (Homo sapiens): 288 nM
- MIC (Nakaseomyces glabratus): 1.56 µg/mL (≈ 1.56 µM)

Reference: ChEMBL document CHEMBL1133206, “Antifungal rapamycin analogues with reduced immunosuppressive activity” (Bioorg Med Chem Lett, 2000)
